Here are results for four compounds from ChEMBL document CHEMBL1201862, “PubChem BioAssay data set” (2004).

Assay type in all cases: functional
Test [1] has as its target Dual specificity tyrosine-phosphorylation-regulated kinase 3 (Homo sapiens, UniProt O43781).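 Also: measured as one member of a broad kinase panel.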
Test [2] has as its target Serine/threonine-protein kinase PAK 1 (Homo sapiens, UniProt Q13153).
Test [3] concerns the target Homeodomain-interacting protein kinase 4 (Homo sapiens, UniProt Q8NE63).
For test [4], the target named is Mitogen-activated protein kinase 9 (Homo sapiens, UniProt P45984).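 Also: value from a kinome panel profiling assay, MAPK9 panel entry.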
Test [5] has as its target Casein kinase I isoform alpha (Homo sapiens, UniProt P48729).
Test [6] concerns the target Homeodomain-interacting protein kinase 2 (Homo sapiens, UniProt Q9H2X6).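 Also: measured within a kinome-wide kinase profiling panel, HIPK2 being one panel member.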
For test [7], the target named is Tyrosine-protein kinase Blk (Homo sapiens, UniProt P51451).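 Also: obtained as one member of a kinome-wide kinase assay panel.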
Test [8] concerns the target Hepatocyte growth factor receptor (Homo sapiens, UniProt P08581).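 Also: kinase panel profiling across the kinome, with MET as the panel member.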
For test [9], the target named is Serine/threonine-protein kinase PAK 4 (Homo sapiens, UniProt O96013).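 Also: value obtained within a kinome profiling panel in which PAK4 was one of the panel members.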
For test [10], the target named is T1, Testis-specific serine/threonine-protein kinase 2 (Homo sapiens, UniProt Q96PF2).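 Also: part of the Navigating the Kinome panel, target entry STK22B.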
T1 sequence (Q96PF2 whole entry): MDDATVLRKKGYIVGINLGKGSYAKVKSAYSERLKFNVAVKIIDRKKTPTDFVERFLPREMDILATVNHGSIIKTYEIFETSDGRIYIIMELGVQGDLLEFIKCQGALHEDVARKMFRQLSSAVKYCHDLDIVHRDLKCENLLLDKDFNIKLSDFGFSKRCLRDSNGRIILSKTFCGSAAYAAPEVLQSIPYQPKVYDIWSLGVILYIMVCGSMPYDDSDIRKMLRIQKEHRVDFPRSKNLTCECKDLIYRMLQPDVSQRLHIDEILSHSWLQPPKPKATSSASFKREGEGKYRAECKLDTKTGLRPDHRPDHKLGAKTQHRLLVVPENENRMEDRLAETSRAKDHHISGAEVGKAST

In test [11] the target is Serine/threonine-protein kinase DCLK1 (Homo sapiens, UniProt O15075).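 Also: affinity for DCLK1 (listed as DCAMKL1) measured as one member of a kinome-wide kinase profiling panel.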
Test [12] addresses T2, Tyrosine-protein kinase JAK3 (Homo sapiens, UniProt P52333).
T2 sequence (P52333 whole entry): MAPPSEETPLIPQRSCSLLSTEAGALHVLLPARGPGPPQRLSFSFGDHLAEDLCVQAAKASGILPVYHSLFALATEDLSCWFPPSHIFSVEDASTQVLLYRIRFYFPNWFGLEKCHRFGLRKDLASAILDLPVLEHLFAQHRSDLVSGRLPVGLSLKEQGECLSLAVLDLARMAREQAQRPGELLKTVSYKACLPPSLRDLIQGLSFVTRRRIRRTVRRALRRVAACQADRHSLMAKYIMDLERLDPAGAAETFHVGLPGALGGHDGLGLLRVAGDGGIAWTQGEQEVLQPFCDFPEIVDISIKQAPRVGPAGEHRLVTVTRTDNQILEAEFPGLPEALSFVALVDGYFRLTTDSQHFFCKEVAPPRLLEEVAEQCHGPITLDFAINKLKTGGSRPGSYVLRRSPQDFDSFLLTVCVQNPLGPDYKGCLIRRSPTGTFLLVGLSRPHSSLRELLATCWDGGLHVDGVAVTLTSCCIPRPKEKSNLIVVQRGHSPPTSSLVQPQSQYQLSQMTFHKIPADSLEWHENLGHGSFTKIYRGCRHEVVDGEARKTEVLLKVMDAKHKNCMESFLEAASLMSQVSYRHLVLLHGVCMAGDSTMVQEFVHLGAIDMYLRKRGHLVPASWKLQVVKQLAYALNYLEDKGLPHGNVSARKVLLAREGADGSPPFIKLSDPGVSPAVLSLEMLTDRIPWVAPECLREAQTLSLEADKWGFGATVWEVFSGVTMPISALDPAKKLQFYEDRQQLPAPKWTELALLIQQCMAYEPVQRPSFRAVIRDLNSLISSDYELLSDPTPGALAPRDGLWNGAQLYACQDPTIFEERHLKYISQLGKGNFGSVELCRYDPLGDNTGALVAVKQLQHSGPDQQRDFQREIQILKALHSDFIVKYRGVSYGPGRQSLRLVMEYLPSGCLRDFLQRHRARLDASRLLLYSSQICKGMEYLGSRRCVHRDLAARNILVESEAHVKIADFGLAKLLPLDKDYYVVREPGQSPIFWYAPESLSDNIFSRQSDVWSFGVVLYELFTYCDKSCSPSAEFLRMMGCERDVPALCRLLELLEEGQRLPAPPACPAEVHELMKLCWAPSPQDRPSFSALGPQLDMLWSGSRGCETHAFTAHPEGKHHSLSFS

In test [13] the target is Megakaryocyte-associated tyrosine-protein kinase (Homo sapiens, UniProt P42679).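 Also: affinity measured as one member of a kinase panel (Navigating the Kinome) against MATK.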
The target in test [14] is Tyrosine-protein kinase Srms (Homo sapiens, UniProt Q9H3Y6).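 Also: SRMS measured as one member of a kinome-wide kinase profiling panel.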
In test [15] the target is Serine/threonine-protein kinase pim-3 (Homo sapiens, UniProt Q86V86).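 Also: value obtained as one member of a broad kinase panel profiling effort.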
The target of test [16] is Proto-oncogene tyrosine-protein kinase ROS (Homo sapiens, UniProt P08922).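 Also: ROS1 tested as one member of a kinome-wide kinase panel.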
Test [17] has as its target Serine/threonine-protein kinase Nek2 (Homo sapiens, UniProt P51955).
The target of test [18] is Receptor-type tyrosine-protein kinase FLT3 (Homo sapiens, UniProt P36888).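 Also: FLT3 was tested as one member of a kinome-wide kinase panel.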
The target of test [19] is Ribosomal protein S6 kinase alpha-3 (Homo sapiens, UniProt P51812).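 Also: measured within a kinome-wide profiling panel.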
In test [20] the target is Serine/threonine-protein kinase TBK1 (Homo sapiens, UniProt Q9UHD2). As to the kind of experiment: Navigating the Kinome. Panel member name: TBK1.
The target of test [21] is Dual specificity mitogen-activated protein kinase kinase 1 (Homo sapiens, UniProt Q02750). The test can be described thus: Navigating the Kinome. Panel member name: MAP2K1.
In test [22] the target is Dual specificity tyrosine-phosphorylation-regulated kinase 1B (Homo sapiens, UniProt Q9Y463). The test can be described thus: Navigating the Kinome. Panel member name: DYRK1B.
The target of test [23] is Dual specificity mitogen-activated protein kinase kinase 2 (Homo sapiens, UniProt P36507). As to the kind of experiment: Navigating the Kinome. Panel member name: MAP2K2.
Test [24] has as its target Leucine-rich repeat serine/threonine-protein kinase 2 (Homo sapiens, UniProt Q5S007).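 Also: value from a broad kinome-wide panel profiling study in which LRRK2 was one of the kinases tested.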
Test [25] has as its target Rho-associated protein kinase 1 (Homo sapiens, UniProt Q13464).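 Also: measured within a broad kinome-wide panel profiling many kinases.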
Test [26] addresses Proto-oncogene tyrosine-protein kinase receptor Ret (Homo sapiens, UniProt P07949).

Activity calls are given as the source filed them. Some results are limits rather than exact numbers.

Sequence of Proto-oncogene tyrosine-protein kinase ROS (P08922 whole entry): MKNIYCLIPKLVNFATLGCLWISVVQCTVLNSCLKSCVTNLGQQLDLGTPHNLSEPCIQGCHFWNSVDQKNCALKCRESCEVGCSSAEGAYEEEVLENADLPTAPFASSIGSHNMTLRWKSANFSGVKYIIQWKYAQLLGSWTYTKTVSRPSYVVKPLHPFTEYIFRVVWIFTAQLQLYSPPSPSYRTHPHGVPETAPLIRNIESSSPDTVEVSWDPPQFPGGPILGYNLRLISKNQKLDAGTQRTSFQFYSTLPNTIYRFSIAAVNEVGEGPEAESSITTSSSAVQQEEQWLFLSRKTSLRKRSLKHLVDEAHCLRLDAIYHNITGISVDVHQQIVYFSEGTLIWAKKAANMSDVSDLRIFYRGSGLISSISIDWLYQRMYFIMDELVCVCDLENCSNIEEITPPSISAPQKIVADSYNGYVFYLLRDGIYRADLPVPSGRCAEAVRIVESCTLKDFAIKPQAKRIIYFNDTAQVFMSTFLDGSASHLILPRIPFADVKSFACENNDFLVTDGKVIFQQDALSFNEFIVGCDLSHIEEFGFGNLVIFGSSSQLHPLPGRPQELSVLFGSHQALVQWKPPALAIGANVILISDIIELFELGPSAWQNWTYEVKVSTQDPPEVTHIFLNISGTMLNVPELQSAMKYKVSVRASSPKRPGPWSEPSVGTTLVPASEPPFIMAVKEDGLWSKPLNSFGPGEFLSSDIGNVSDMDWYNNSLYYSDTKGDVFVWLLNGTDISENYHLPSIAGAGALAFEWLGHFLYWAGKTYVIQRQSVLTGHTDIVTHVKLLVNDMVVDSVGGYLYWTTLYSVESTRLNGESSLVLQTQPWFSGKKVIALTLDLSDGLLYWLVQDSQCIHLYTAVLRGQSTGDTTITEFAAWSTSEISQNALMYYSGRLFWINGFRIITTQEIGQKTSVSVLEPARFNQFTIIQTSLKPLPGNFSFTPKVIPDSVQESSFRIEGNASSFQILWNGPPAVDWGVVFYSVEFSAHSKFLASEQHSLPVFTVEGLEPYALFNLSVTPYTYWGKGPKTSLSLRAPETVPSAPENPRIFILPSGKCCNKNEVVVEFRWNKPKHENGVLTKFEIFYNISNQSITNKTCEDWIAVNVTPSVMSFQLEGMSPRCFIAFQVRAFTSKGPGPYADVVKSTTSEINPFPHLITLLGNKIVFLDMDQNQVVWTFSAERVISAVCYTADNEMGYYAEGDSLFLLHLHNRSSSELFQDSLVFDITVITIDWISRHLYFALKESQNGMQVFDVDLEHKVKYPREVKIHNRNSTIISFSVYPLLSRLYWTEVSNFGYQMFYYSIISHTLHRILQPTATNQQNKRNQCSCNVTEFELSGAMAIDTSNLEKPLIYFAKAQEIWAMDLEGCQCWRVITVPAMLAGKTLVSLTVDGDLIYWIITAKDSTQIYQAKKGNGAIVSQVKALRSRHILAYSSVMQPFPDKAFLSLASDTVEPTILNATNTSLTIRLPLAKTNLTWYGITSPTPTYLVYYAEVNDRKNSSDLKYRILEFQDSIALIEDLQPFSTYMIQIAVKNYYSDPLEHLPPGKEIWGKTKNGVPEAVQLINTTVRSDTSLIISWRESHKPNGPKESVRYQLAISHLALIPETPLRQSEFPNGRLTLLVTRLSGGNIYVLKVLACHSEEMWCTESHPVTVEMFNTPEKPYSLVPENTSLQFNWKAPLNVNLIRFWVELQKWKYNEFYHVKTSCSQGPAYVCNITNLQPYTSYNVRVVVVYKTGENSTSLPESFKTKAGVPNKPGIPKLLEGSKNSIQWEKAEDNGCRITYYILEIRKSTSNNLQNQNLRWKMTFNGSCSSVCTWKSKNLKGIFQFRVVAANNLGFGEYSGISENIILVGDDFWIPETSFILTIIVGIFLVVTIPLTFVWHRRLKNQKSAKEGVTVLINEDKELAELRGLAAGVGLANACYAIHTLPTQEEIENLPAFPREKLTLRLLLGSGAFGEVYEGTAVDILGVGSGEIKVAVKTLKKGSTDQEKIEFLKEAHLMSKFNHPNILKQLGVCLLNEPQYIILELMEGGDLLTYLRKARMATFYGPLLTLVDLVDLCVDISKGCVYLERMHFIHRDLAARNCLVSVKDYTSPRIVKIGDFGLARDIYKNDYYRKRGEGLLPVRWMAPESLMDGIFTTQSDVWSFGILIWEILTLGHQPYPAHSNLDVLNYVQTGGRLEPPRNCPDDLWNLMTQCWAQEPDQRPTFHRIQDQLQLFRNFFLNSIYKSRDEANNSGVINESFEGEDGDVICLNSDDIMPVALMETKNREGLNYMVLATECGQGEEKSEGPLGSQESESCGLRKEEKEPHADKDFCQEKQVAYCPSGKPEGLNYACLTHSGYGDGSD
Sequence of Serine/threonine-protein kinase PAK 1 (Q13153 whole entry): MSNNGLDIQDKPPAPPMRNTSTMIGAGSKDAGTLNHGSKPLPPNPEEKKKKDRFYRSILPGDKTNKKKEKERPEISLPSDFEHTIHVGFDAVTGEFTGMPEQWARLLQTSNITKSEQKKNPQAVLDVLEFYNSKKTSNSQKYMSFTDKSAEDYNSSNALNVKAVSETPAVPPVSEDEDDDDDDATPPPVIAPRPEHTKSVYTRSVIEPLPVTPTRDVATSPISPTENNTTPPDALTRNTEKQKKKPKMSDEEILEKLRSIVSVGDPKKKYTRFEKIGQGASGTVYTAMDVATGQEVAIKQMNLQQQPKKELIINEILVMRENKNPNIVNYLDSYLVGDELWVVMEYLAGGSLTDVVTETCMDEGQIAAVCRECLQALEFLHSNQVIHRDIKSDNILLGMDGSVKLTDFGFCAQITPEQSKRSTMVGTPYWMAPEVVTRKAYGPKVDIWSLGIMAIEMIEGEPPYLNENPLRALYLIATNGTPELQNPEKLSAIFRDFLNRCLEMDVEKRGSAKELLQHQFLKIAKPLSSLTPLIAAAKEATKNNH
Sequence of Dual specificity mitogen-activated protein kinase kinase 2 (P36507 whole entry): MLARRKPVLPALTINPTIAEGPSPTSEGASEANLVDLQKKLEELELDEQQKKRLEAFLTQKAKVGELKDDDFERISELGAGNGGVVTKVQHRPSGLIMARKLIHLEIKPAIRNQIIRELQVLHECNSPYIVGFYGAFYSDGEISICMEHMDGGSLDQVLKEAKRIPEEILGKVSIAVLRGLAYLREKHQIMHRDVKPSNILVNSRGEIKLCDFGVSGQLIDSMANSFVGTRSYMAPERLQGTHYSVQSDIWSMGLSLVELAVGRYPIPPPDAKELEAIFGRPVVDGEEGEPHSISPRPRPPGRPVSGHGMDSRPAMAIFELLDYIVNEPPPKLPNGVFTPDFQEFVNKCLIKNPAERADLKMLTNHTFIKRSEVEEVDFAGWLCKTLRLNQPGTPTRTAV
Sequence of Receptor-type tyrosine-protein kinase FLT3 (P36888 whole entry): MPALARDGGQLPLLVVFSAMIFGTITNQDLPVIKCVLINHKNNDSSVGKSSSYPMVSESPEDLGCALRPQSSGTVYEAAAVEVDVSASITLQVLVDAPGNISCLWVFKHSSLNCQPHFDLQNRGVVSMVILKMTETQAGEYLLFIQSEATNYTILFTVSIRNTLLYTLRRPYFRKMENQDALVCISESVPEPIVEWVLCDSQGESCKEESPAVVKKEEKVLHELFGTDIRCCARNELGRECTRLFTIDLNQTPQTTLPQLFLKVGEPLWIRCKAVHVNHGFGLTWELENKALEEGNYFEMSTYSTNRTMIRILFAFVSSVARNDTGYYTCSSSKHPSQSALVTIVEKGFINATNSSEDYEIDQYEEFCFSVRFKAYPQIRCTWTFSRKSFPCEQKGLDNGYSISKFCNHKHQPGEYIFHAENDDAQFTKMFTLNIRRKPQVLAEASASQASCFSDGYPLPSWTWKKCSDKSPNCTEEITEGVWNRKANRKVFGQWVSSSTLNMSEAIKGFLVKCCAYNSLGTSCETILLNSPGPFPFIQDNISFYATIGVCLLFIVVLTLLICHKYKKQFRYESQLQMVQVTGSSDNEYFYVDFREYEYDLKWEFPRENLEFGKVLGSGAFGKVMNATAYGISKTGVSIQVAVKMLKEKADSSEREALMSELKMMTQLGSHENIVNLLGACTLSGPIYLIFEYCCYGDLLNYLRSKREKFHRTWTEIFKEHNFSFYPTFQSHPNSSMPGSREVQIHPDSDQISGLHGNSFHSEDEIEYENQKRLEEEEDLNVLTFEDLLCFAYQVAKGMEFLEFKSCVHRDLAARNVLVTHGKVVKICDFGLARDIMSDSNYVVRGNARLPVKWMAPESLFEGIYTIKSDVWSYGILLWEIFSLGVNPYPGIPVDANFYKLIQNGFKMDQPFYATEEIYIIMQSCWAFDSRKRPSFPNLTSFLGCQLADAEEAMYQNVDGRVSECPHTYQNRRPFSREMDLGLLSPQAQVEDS
Sequence of Tyrosine-protein kinase Blk (P51451 whole entry): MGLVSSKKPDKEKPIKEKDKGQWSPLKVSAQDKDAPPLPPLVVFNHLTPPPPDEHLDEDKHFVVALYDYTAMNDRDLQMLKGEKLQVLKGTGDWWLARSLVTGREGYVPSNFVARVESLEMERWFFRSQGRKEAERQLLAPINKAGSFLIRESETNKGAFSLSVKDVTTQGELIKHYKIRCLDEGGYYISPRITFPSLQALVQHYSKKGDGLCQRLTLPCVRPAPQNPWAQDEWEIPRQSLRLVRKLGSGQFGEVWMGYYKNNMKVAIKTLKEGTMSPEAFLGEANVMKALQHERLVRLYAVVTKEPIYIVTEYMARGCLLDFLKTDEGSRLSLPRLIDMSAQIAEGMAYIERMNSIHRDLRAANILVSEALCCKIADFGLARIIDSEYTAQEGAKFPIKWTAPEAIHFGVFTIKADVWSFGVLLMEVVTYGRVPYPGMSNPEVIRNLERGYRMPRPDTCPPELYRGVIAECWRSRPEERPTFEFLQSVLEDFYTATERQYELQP

On to `NC1CCC(Nc2nccc(-c3c[nH]c4ncccc34)n2)CC1` (configuration not stated), for which the inhibitory constant (Ki) is 63.1 nM (active) in test [1]; 7940 nM (active) in test [2]; 2510 nM (active) in [3]; 126 nM (active) in [4]; 50.1 nM (active) in test [5]; 15.8 nM (active) in [6]. The Ki in test [7] was > 1580 nM (inactive); in test [8], > 3160 nM (inactive); in test [9], 316 nM (active); in test [10], 794 nM (active); in test [11], 1000 nM (active); in test [12] it was 398 nM (active). Moreover, the Ki in test [13] was > 2000 nM (inactive); in test [14], > 1580 nM (inactive); in [15], 200 nM (active); in [16], > 2000 nM (inactive); in [17], > 10000 nM (inactive); in [18], 63.1 nM (active). Further, the Ki in [19] was 5.01 nM (active).
Regarding `OCc1cc(-c2ccc3[nH]ncc3c2)on1`, the Ki in test [20] was 50100 nM (active); in [4], 79400 nM (active); in test [21], 10000 nM (active); in [8], 31600 nM (active); in test [22] it was 100 nM (active); in test [12], 100000 nM (active). Further, the inhibition constant (Ki) is 15800 nM (active) in test [23]; 3980 nM (active) in [24]; 398 nM (active) in [25]; 39800 nM (active) in [17]; 50100 nM (active) in test [26].
Turning to `COC(C(=O)N1Cc2[nH]nc(NC(=O)c3ccc(N4CCN(C)CC4)cc3)c2C1)c1ccccc1` (configuration not stated), the Ki in test [1] is > 6310 nM (inactive); in test [2], > 10000 nM (inactive); in test [3], > 7940 nM (inactive); in [6], > 3160 nM (inactive); in test [7], 39.8 nM (active); in [10], > 1580 nM (inactive). The inhibition constant (Ki) in test [11] is 39.8 nM (active); in test [13], > 2000 nM (inactive); in test [14], 50.1 nM (active); in [15], > 7940 nM (inactive); in [16] it was 7.94 nM (active).
As to `CC(C)(O)c1cn(-c2ccc3[nH]ncc3c2)nn1`, the Ki in [20] is 79400 nM (active); in test [21], 20000 nM (active); in test [5], 10000 nM (active); in test [9] it was 100000 nM (active); in test [22], 2000 nM (active); in test [23], 25100 nM (active). The Ki in test [24] is 12600 nM (active); in test [25] it was 794 nM (active); in test [26], 25100 nM (active); in [18], 50100 nM (active); in test [19], 39800 nM (active).

In general, Ki refers to the equilibrium dissociation constant of an inhibitor or competing ligand from its target.
